For assay [1], the system named is STZ-induced DKD rats. In words: Masson staining, interstitial fibrosis index, STZ-induced DKD rats. In kind it is in vivo, rat. The conditions noted are these: 10 mg/kg once/day, P<0.05 vs vehicle. The method, then: (§1) Before the injection, the rats were fasted for 12 hours without water. After weighing, the rats were injected with 55 mg/kg STZ intraperitoneally (STZ needs to be injected quickly, and the injection was completed within 10 minutes), and then returned to the cage to ensure that the rats had sufficient drinking water for 24 hours. Rats were injected with an equal volume of citrate buffer (pH 4.5). After STZ injection for 3 weeks, blood was collected from the tail vein, and blood glucose ≥16.7 mmol/L was used as the criteria for the standard of the rats.
(§2) The route of administration is intragastric administration. TBN was administered twice a day (fixed at 9:00-10:00 am and 3:00-4:00 pm), and Losartan was administered once a day (fixed at 9:00-10:00 am) continuously for 6 weeks.
At the end of the experiment, the kidney tissues were quickly separated, fixed with 4% paraformaldehyde and embedded in paraffin, serially sliced, 5 μm each, dried at 37° C. for 1 h, and then subjected to Masson staining. The process is briefly as follows: paraffin sections are taken out of the 65° C. oven and immediately put in xylene for dewaxing and gradient alcohol rehydration, according to the kit instructions, add reagent A (a mixture of equal amounts of A1 and A2) for dyeing for 8 min; then use Reagent B differentiates and reagent C turns blue; reagent D stains for 7 min; reagent E washes for 1 min; reagent F washes for 1 min; reagent G stains for 1 min; dehydrated with 95% ethanol and absolute ethanol, transparent xylene, sealed with neutral gum piece.

In assay [2] the test system is db/db mice. As to the kind of experiment: Urinary albumin/creatinine ratio in db/db mice, TBN alone and in combination. It is filed as in vivo, mouse. Particulars: TBN 30 mg/kg, Losartan 10 mg/kg, TBN+Losartan (FIG. 17). As to the method:
Grouping and dosing are the same as in Example 9. At the end of the experiment, 24 h urine samples were collected, antiseptic treatment was performed to all urine specimens with toluene, 24 h urine was centrifuged to remove precipitation and placed in a 1.5 mLEP tube and then placed in a refrigerator at −20° C. for later use, urinary albumin content was measured with ELISA kits, urine creatinine levels were detected by use of an automatic biochemical analyzer, and the ratio of both was calculated. The results as shown in FIG. 19 indicate that the ratio of urinary microalbumin to creatinine in DB/DB group was higher than that in wt/wt group, and the db/db mice 24 h urinary albumin creatinine ratio decreased in TBN group, losartan group and TBN-losartan combination group. Referring to this method, metformin (150 mg/kg, qd), and HIF-PH inhibitor roxadustat (10 mg/kg, once 2 every days) were given via oral administration, the combination groups of TBN with respectively metformin and roxadustat also reduce 24 h urinary albumin creatinine ratio.

Assay [3] relates to db/db mice. As to the kind of experiment: 24 h urine microalbumin in db/db mice. In kind it is in vivo, mouse. The conditions noted are these: 10 mg/kg once/day, 6 weeks, P<0.001. An excerpt: db/db mice are congenital obese type 2 DKD mice with spontaneous mutations in the leptin receptor (Leptin receptor, Lepr) due to a point mutation in the leptin receptor gene GT located on chromosome 4. The course of polyphagia, polyuria, diabetes and hyperglycemia is similar to that of humans, and it is currently the most widely used type 2 spontaneous animal model of DKD. The db/db mice have a series of complications with the aggravation of diabetes. The main pathological changes of renal tissue are the expansion of the glomerular mesangial interstitium, the thickening of the glomerular basement membrane, and the excessive accumulation of extracellular matrix. However, the glomerular mesangium of db/db mice changes relatively slowly, and the glomerular mesangium will not be dissolved or nodular glomerulosclerosis, and there is no progressive renal insufficiency. […]
db/db mice were tested for 24 h urine microalbumin in the 4th and 6th week after drug treatment. […] The absorbance value (OD value) was measured at 450 nm wavelength; the blank control hole was used for adjusting zero, the microalbuminuria standard concentration was used as the abscissa, the OD value as the ordinate, the standard curve regression equation was calculated, and on the basis of the regression equation and the sample's OD value, the concentration of the sample was determined.

The subject of assay [4] is db/db mice. As to the kind of experiment: Electron microscopy of kidney tissue in db/db mice. It is filed as in vivo, mouse. Particulars: 10 mg/kg, 6 weeks (TBN P<0.05; Losartan P<0.01). An excerpt:
db/db mice are congenital obese type 2 DKD mice with spontaneous mutations in the leptin receptor (Leptin receptor, Lepr) due to a point mutation in the leptin receptor gene GT located on chromosome 4. The course of polyphagia, polyuria, diabetes and hyperglycemia is similar to that of humans, and it is currently the most widely used type 2 spontaneous animal model of DKD. The db/db mice have a series of complications with the aggravation of diabetes. The main pathological changes of renal tissue are the expansion of the glomerular mesangial interstitium, the thickening of the glomerular basement membrane, and the excessive accumulation of extracellular matrix. However, the glomerular mesangium of db/db mice changes relatively slowly, and the glomerular mesangium will not be dissolved or nodular glomerulosclerosis, and there is no progressive renal insufficiency.
Six-week-old db/db mice were purchased, and start the administration after adaptive feeding for 1 week (i.e., 7-week-old). TBN is administered twice a day (fixed by starting from 9:00-10:00 am and 3:00-4:00 pm, with an interval of 6 hours), and the positive control drug Losartan was administered once a day (fixed at 9:00-10:00 am) for 6 weeks.
After the mice were executed, the renal cortex was quickly taken with sharp blade (performed on ice); fixed with 2.5% glutaraldehyde (pH 7.4) at 4° C. for 6 h; then fixed for 2 h in a stationary liquid having 1:1 of 0.2 mmol/L PBS and 2% osmic acid, and dehydrated with gradient acetone at 4° C., 10 min for each of 50%, 70%, 90% acetone, then dehydrated with 100% acetone at room temperature twice, each time 15 min; in 1:1 acetone and Epon812 epoxy resin embedded mixed liquid, soaked at room temperature for 30 min; then dipped through the pure furnishings overnight, the embedding agent was made enveloping into tissue blocks completely to replace the dehydrating agent; the samples were embedded in the embedder for ultra-thin slicing, placed at 35° C. for 12 h; placed at 45° C. for 12 h; placed at 60° C. for 48 h; placed in a 37° C. oven for 36 h, in a 60° C. oven for 36 h; 1.5 μm semi-slice was prepared with an ultra-thin slicer; positioning under optical microscope, a trapeter having a top area of about 1 mm^2 was shaped to prepare 60-70 nm thick ultra-thin slices; dyed in dark with acetate hydroxide liquid for 10 min, and dyed in lead-stained citrate for 10 min.

Assay [5] deals with STZ-induced DKD rats. As to the kind of experiment: HE staining of kidney tissue, STZ-induced SD rat DKD model. Particulars: 10 mg/kg i.g. once/day, 6 weeks. In kind it is in vivo. The method, then:
as §1, §2
At the end of the experiment, kidney tissues were quickly separated, fixed with 4% paraformaldehyde and embedded in paraffin, serially sliced, 5 μm each, dried at 37° C. for 1 h, and then stained with hematoxylin and eosin (HE). The process is briefly as follows: paraffin sections were taken out of the 65° C. oven and immediately put in xylene to dewax and rehydrated with gradient alcohol, stained with hematoxylin staining solution for 10 minutes, and microscopically controlled alcohol differentiation with 1% hydrochloric acid was performed until the chromatin of the nucleus and the nucleus becomes clear; 1% ammonia water-ethanol solution is blue; 0.5% eosin Y-ethanol solution is stained for 3 min, and finally dehydrated routinely, mounted, and the tissue morphology changes are observed under a light microscope. […] The glomerular volume of rats in the DKD group of the Vehicle group increased, the mesangial area was diffusely widened, the mesangial cells were proliferated, the capillary loops were expanded, the mesangial matrix increased, and the glomerular capillary basement membrane was irregularly thickened. Renal pathological changes such as vacuole deformation, shedding of renal tubular epithelial cells and infiltration of a large number of inflammatory cells (FIG. 9A).

Assay [6] deals with STZ-induced DKD rats. As to the kind of experiment: PAS staining, glomerular sclerosis index, STZ-induced DKD rats. It is filed as in vivo, rat. Particulars: all doses of TBN (10, 30, 60 mg/kg twice/day); Losartan 10 mg/kg once/day; 6 weeks; P<0.001 vs Vehicle. As to the method:
as §1, §2
At the end of the experiment, kidney tissues were quickly separated, fixed with 4% paraformaldehyde and embedded in paraffin, serially sliced, 5 μm each, dried at 37° C. for 1 h, and then stained with PAS. The process is briefly as follows: paraffin sections are taken out of the 65° C. oven and immediately placed in xylene for deparaffinization and gradient alcohol rehydration, followed by periodic acid treatment for 5 min and Schiff treatment for 10 min, and then differentiation is performed with differentiation solution for 10 s. […]

The test system of assay [7] is STZ-induced DKD rats. In words: Kidney index of STZ-induced DKD rats. In kind it is in vivo, rat. Particulars: after 6 weeks of administration. The method, then:
(§3) SD rats (200±10 g) were used as model animals, which were fasted for 12 h before injection. STZ was dissolved in citrate buffer at 1% concentration, and rats were fasted and intraperitoneally injected with 55 mg/kg STZ and placed in the cage, the rats being ensured with adequate water intake for 24 h. STZ injections need to be fast and complete within 10 minutes of injection. The normal control group was injected with an equal volume of pH 4.5 citric acid-sodium citrate buffer. The state of the animals (multiple drinking and polyuria) was observed. After 3 weeks of STZ injection, blood was collected from the tail vein, and fasting blood glucose ≥16.7 mmol/L was measured as the standard for diabetic nephropathy in rats.
(§4) DKD rats were randomly assigned to 6 groups and given with different drugs. After 6 weeks of administration, the experiment was terminated and the protective effect of the drug on DKD rats was observed.
After 6 weeks of administration, the kidney tissue was uniformly separated by an autoclave surgical instrument, and washed with normal saline. After the filter paper was blotted, the fine balance was weighed, and then stored in a refrigerator at −80° C. for use. Kidney index (relative to kidney weight) is kidney weight (mg)/body weight (g)[…].

The subject of assay [8] is STZ-induced DKD rats. In words: Retinopathy of STZ-induced DKD rats. In kind it is in vivo, rat. The conditions noted are these: DKD rats after treatment, Table 1 (FIG. 5). As to the method:
as §3, §4
During the experiment, the retinopathy of rats was observed during daily administration, and the dates of retinopathy in different groups of rats were recorded.

Another assay relates to EPO mRNA. As to the kind of experiment: EPO mRNA by RT-PCR in CoCl2-induced HepG2 cell hypoxia model. The conditions noted are these: hypoxia model caused by cobalt dichloride, concentration not given.
The test system of assay [9] is STZ-induced DKD rats. As to the kind of experiment: Blood glucose and urine protein in STZ-induced DKD rats. In kind it is in vivo, rat. As to the method:
as §3, §4
During the experiment, the blood glucose of the rats was monitored after the completion of the modeling and after the completion of the administration, and urine protein was collected once at 24 hour.

Assay [10] deals with STZ-induced DKD rats. In words: Body weight, water intake and food intake of STZ-induced DKD rats. It is filed as in vivo, rat. The method, then:
as §3, §4
The general condition and body weight changes after rat modeling were observed weekly. The general conditions include the activity, mental state, coat color, diet, water intake and urine volume of the rats. The amount of water and the amount of feed were recorded weekly.

Assay [11] relates to STZ-induced DKD rats. As to the kind of experiment: Serum biochemical parameters of STZ-induced DKD rats. It is filed as in vivo, rat. The conditions noted are these: six weeks after administration, dose-dependent. As to the method: as §3, §4
Six weeks after the administration, the rats were anesthetized, and the blood was taken from the abdominal aorta, and, after standing for 1 hour, was centrifuged at 3000 rmp for 10 min and stored at −70° C. Serum levels of creatinine, urea nitrogen, cholesterol and triglycerides were measured using an automated biochemical analyzer.

For `CCCCc1nc(Cl)c(CO)n1Cc1ccc(-c2ccccc2-c2nn[nH]n2)cc1` [Losartan, reference compound], the interstitial fibrosis index result in the assay with STZ-induced DKD rats [1] is recorded as “significantly reduced”. In the assay with db/db mice [2], the “24 h urinary albumin creatinine ratio” value is listed as “decreased”. Moreover, in the assay on db/db mice [3], the “24 h urine microalbumin production” value is on record as “significantly reduced”. The “thickness of the glomerular base film” value in the assay with db/db mice [4] was “significantly reduced”. In the assay with STZ-induced DKD rats [5], the glomerular area result is on record as “did not significantly reduce” and the “renal tissue damage (HE)” value is “improved”. For the same compound, the glomerular sclerosis index entry with STZ-induced DKD rats [6] is “significantly reduce”.

Turning to `Cc1nc(/C=[N+](\[O-])C(C)(C)C)c(C)nc1/C=[N+](\[O-])C(C)(C)C` [TN-2], the kidney index result in the assay with STZ-induced DKD rats [7] is on record as “significantly reduced”. In addition, in the assay with STZ-induced DKD rats [8], the number of retinopathy entry is “reduced” and the “time when retinopathy occurred” value is “relatively delayed”. In addition, the “expression of EPO mRNA” value in the assay with EPO mRNA was “increase”. Moreover, the “urinary protein content in urine” value in the assay with STZ-induced DKD rats [9] (24 hour urine, DKD rats) is listed as “significantly reduced”. For the same compound, the blood glucose result in the assay with STZ-induced DKD rats [9] (after 6 weeks of treatment) is reported as “significantly decreased”. Also, the body weight result in the assay with STZ-induced DKD rats [10] (STZ-induced diabetic nephropathy rats, FIG. 1a) is “no effect”. Besides, in the assay with STZ-induced DKD rats [10] (vs model group, FIG. 1b), the water intake result was “significantly lower”. The food intake entry with STZ-induced DKD rats [10] (vs model group, FIG. 1c) is listed as “significantly lower”. In the assay with STZ-induced DKD rats [11], the serum cholesterol entry is reported as “significantly reduce”, the serum creatinine result is “significantly reduce”, the serum triglyceride entry was “significantly reduce” and the serum urea nitrogen entry is recorded as “significantly reduce”.

(Values after patent US12377095B2, “Use of ligustrazine nitrone derivatives in treatment and prevention of diabetic complication diseases” (QINGDAO HAILAN PHARMACEUTICALS CO., LTD., priority 2019, dated 2025).)
